PMC6104605, “Discovery of new chromen-4-one derivatives as telomerase inhibitors through regulating expression of dyskerin” (Journal of Enzyme Inhibition and Medicinal Chemistry, 2018)

Assays:
[1] = test system: DEN-induced rat hepatic tumor; assay: In vivo tumor model, DEN-induced rat hepatic tumor (HE histopathology); settings: DEN-induced SD rats, 50 mg·kg−1 orally once a day, 10 weeks
Procedure: SD rats, male, 120 ∼ 160 g. 120 rats were divided randomly into two groups containing 12 normal rats and 108 DEN model rats. Rats were gavaged daily with DEN 8 mg/kg, once a day, 6 days a week. Normal saline rats were given the same volume, molding to 10 weeks. 60 model rats were randomly divided into five groups, 12 rats in each group, continued to give DEN; normal rats were given normal saline, molding to 16 week, stopped giving DEN. Compound 5i treatment group from the 10th week, 50 mg·kg^−1 was orally given, once a day, for 10 consecutive weeks. Similar parts of left lobe of liver were taken and fixed by 4% polyformaldehyde solution, embedded in paraffin, sliced and HE stained, for histopathological observation.

[2] = test system: human gastric cancer cells SGC-7901; assay: MTT anticancer assay, SGC-7901; format: cell-based
Procedure: The MTT was purchased from Sigma. Cell Cycle Analysis Kit and Apoptosis Analysis Kit were purchased from Bestbio (China). Mitochondrial membrane potential assay kit with JC-1 was purchased from Beyotime (China). All the materials were used as received without further purification unless noted specifically. The cell culture was maintained on DMEM medium (Hyclone, US) supplemented with 10% fetal bovine serum (Sijiqing, China), 100 U/mL penicillin and 100 µg/mL streptomycin in 25-cm^2 culture flasks at 37 °C humidified atmosphere with 5% CO2. Drugs were dissolved in DMSO and filtered through 0.22-µm pore-size filter units before addition to cell line appropriate media. When tumor cells were grown to log phase, diluting to 5 × 10^4 cells mL^−1 with the complete medium, 100 µL of the obtained cell suspension was added to each well of 96-well culture plates. The subsequent incubation was performed at 37 °C, 5% CO2 atmosphere for 48 h before subjecting to anti-proliferation assessment. After 48-h exposure period, 20 µL of PBS containing 5 mg·mL^−1 of MTT was added to each well. After 4 h, the medium was replaced by 150 µL DMSO to dissolve the purple formazan crystals produced. […] The data represented the mean of three experiments in triplicate and were expressed as means ± SD.

Q: `COc1cc(OC)c2c(=O)c(OCCCCN3CCN(C(=O)c4ccncc4)CC3)c(-c3cc(OC)c(OC)c(OC)c3)oc2c1` [Compound 5i, 3-(4-(4-isonicotinoylpiperazin-1-yl)butoxy)-5,7-dimethoxy-2-(3,4,5-trimethoxyphenyl)-4H-chromen-4-one] was tested. Which “pathological changes of rat hepatic tumor (HE staining)” value [1] did it give?
A: Its value is “significantly improve pathological changes”.

Q: And the “activity against SGC-7901 cells (in words)” value [2]?
A: The value was “good activity”.

Q: What about the IC50 ([2]; Homo sapiens, SGC-7901, MTT, 48 h exposure, mean ± SD) of the same compound?
A: Its IC50 is 1.35 ± 0.17 µM.
